Counter-ions that a name gives are not always drawn. Bounds are passed on as bounds.

The subject of one data set is effects of cocaine. The settings on record: cited from earlier work; for Effects against cocaine in behavioral models: rodents, ref 32 (compound 1), ref 34 (compound 2).
In data set [1] the test system is effects of methamphetamine. The settings on record: mice; ref 33 (compound 1), ref 35 (compound 2, pretreatment); cited from earlier work.
Data set [2] deals with norepinephrine transporters (Rattus norvegicus, UniProt Q63380). In words: Norepinephrine transporter binding.
In the next data set the target is T1, σ2R (Rattus norvegicus, UniProt Q5U3Y7).
T1 sequence (Q5U3Y7 1-176): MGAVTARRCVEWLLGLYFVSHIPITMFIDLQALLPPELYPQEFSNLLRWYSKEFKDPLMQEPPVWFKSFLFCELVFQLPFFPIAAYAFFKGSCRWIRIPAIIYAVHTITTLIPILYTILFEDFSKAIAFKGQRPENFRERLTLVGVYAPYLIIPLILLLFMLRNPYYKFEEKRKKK
In words: σ2R radioligand competition binding. The settings on record: selectivity ratio σ1R over σ2R.

The test system of data set [3] is cocaine-induced convulsions. As to the kind of experiment: In vivo cocaine-induced convulsion studies. Particulars: mice, 10 mg/kg i.p. pretreatment; P<0.005 vs vehicle, Fisher's exact test.
In data set [4] the target is Serotonin (5-HT2) receptors (Rattus norvegicus, UniProt P14842). In words: Serotonin. The settings on record: ratio of Ki 5-HT2 to Ki σ2R. In kind it is binding.
The target of a further data set is serotonin transporters (Rattus norvegicus, UniProt P31652). In words: Serotonin transporter binding. The settings on record: ratio of Ki serotonin transporter to Ki σ2R.
serotonin transporters, sequence (P31652 whole entry): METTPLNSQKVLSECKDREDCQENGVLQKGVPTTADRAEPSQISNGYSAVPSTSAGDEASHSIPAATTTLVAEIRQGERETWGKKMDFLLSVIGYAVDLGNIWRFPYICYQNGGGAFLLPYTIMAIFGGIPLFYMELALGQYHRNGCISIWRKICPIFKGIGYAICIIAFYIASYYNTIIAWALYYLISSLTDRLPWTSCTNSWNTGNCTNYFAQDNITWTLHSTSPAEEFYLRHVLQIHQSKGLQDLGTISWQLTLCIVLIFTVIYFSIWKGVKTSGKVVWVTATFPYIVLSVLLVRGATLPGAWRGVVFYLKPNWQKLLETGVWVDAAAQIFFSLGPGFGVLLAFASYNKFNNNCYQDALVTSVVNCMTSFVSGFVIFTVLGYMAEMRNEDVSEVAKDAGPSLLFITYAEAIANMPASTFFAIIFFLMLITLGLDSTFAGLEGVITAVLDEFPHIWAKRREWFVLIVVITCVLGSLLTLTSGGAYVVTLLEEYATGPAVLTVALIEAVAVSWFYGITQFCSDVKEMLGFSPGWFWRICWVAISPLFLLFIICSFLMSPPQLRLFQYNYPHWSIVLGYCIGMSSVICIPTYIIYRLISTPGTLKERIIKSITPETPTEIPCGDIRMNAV

norepinephrine transporters, sequence (Q63380 1-617): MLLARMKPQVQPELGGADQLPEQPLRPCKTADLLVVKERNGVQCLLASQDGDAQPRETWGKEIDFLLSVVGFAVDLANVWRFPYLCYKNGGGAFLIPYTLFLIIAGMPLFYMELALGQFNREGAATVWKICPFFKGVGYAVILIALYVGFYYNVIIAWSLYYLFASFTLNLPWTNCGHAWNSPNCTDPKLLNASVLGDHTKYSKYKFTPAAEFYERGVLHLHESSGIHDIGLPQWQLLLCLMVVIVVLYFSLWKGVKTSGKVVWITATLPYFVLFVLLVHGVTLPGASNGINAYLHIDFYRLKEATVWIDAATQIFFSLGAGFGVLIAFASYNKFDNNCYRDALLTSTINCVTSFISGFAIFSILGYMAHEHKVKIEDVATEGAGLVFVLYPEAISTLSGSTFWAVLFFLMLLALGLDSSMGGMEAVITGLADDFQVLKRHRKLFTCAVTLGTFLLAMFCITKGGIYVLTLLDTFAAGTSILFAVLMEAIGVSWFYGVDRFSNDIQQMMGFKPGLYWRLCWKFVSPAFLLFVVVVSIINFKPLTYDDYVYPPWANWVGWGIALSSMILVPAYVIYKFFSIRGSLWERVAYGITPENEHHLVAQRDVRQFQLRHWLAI
Serotonin (5-HT2) receptors, sequence (P14842 whole entry): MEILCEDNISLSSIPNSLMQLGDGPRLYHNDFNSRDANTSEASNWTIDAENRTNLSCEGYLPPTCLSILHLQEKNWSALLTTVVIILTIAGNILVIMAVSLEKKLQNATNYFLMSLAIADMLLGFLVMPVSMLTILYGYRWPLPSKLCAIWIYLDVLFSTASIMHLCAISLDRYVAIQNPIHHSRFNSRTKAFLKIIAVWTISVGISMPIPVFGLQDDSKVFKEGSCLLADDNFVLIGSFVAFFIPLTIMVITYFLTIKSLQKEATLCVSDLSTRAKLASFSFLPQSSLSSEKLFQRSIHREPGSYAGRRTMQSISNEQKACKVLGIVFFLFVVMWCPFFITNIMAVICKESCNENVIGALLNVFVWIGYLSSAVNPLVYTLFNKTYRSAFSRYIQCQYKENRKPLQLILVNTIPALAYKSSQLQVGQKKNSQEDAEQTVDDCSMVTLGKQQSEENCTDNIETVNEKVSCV

In the case of `S=c1sc2ccccc2n1CCCCN1CCN(C2CCCCC2)CC1` [Compound 1, 3-[4-(4-cyclohexylpiperazin-1-yl)butyl]-2(3H)-benzothiazolethione], the “Effects against cocaine in behavioral models” value in the data set with effects of cocaine was “produced both acute and subchronic effects against cocaine”. For the same molecule, in data set [1], the Effects against methamphetamine result is recorded as “mitigate the effects of methamphetamine”.

In data set [2], `CCCn1c(=O)n(CCCCN2CCN(c3ccc(F)cc3)CC2)c2ccccc21` [Compound 14] displayed an inhibition constant Ki of more than 10 µM. For the same molecule, the “Ki σ1/ Ki σ2” value on σ2R is listed as more than 1000. In addition, the “Protective effect against cocaine-induced convulsions, statistical significance” value in data set [3] was “statistically significant”.

As to `CCCCCn1c(=O)n(CCCCN2CCN(c3ccc(F)cc3)CC2)c2ccccc21` [Compound 15, 1-{4-[4-(4-fluorophenyl)piperazin-1-yl]butyl}-3-pentyl-1,3-dihydrobenzimidazol-2-one dihydrochloride], the “5-HT2/σ2R preference for σ2Rs” value in data set [4] is reported as 58 fold. This molecule also returned an inhibition constant (Ki) in data set [2] of more than 10 µM. Further, the “5-HTT/σ2R selectivity for σ2Rs” value at serotonin transporters is 104 fold.

Take `CC(=O)c1ccc2c(c1)oc(=O)n2CCCCN1CCN(c2ccc(F)cc2)CC1` [Compound 2, 6-acetyl-3-{4-[4-(4-fluorophenyl)piperazin-1-yl]butyl}-2(3H)-benzoxazolone]: in the data set on effects of cocaine (acute treatment), the Sedation and incoordination result is “caused sedation and incoordination”. For the same molecule, the “Effects against cocaine in behavioral models” value in the data set with effects of cocaine was “reduced the toxic and stimulant effects of cocaine”. Also, the Effects against methamphetamine entry in data set [1] was “afforded protection against methamphetamine-induced hyperthermia, and striatal dopaminergic and serotonergic neurotoxicity”.

Source of the values: PMC6369001 (European journal of medicinal chemistry, 2019).
